In US9302999B2, “Substituted triazoles as herbicides” (E. I. DU PONT DE NEMOURS AND COMPANY, priority 2012, dated 2016):

How the values were obtained:
Format in all cases: in vivo
[1] = tested on: sedge, umbrella (small-flower umbrella sedge, Cyperus difformis); experiment: Test C flooded paddy test: sedge, umbrella; conditions: scale 0 to 100 (0 no effect, 100 complete control)
Outline: (§1)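 Visual ratings from 0 (no effect) to 100 (complete control), made against untreated controls 13 to 15 days after treatment, express plant response. Compounds went directly into paddy water over 2-leaf stage plants in pots flooded to 3 cm.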

[2] = tested on: ducksalad (Heteranthera limosa); experiment: Test C flooded paddy test: ducksalad; conditions: scale 0 to 100 (0 no effect, 100 complete control)
Outline: as §1

[3] = tested on: rice (Oryza sativa); experiment: Test C flooded paddy test: rice; conditions: scale 0 to 100 (0 no effect, 100 complete control)
Outline: as §1

[4] = tested on: barnyardgrass (Echinochloa crus-galli); experiment: Test A pre-/postemergence: barnyardgrass; conditions: 1000 g ai/ha
Outline: (§2)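 Visual 0–100 injury ratings (0 no effect, 100 complete control) taken about ten days after treatment, relative to untreated controls. Preemergence treatment was a directed soil spray; postemergence plants were 2–10 cm tall at one- to two-leaf stage. Soil: loam/sand blend.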

[5] = tested on: corn (Zea mays); experiment: Test A pre-/postemergence: corn; conditions: 1000 g ai/ha
Outline: as §2

[6] = tested on: morningglory (Ipomoea spp.); experiment: Test A pre-/postemergence: morningglory; conditions: 1000 g ai/ha
Outline: as §2

[7] = tested on: wheat (Triticum aestivum); experiment: Test A pre-/postemergence: wheat; conditions: 1000 g ai/ha
Outline: as §2

[8] = tested on: barnyardgrass (Echinochloa crus-galli); experiment: Test C flooded paddy test: barnyardgrass; conditions: scale 0 to 100 (0 no effect, 100 complete control)
Outline: as §1

[9] = tested on: velvetleaf (Abutilon theophrasti); experiment: Test A pre-/postemergence: velvetleaf; conditions: 1000 g ai/ha
Outline: as §2

[10] = tested on: crabgrass, large (large crabgrass, Digitaria sanguinalis); experiment: Test A pre-/postemergence: crabgrass, large; conditions: 1000 g ai/ha
Outline: as §2

[11] = tested on: pigweed (Amaranthus retroflexus); experiment: Test A pre-/postemergence: pigweed; conditions: 1000 g ai/ha
Outline: as §2

[12] = tested on: foxtail, giant (giant foxtail, Setaria faberii); experiment: Test A pre-/postemergence: foxtail, giant; conditions: 1000 g ai/ha
Outline: as §2

[13] = Flood (flooded paddy test), 250 g ai/ha, visual rating after 13 to 15 days
[14] = Postemergence, visual rating on 0 to 100 scale (0 no effect, 100 complete control), approximately ten days
[15] = Preemergence, 0 to 100 scale, 0 is no effect, 100 is complete control

SMILES: Cc1nn(-c2ccc(C(F)(F)F)cc2)nc1Cn1cnc(C(F)(F)F)n1 [Compound 132]
- Plant response rating, Sedge, Umbrella [1, 13]: 65
- Plant response rating, Sedge, Umbrella ([1]; Flood, 62 g ai/ha): 0
- Plant response rating, Ducksalad [2, 13]: 20
- Plant response rating, Ducksalad ([2]; Flood, 62 g ai/ha): 0
- Plant response rating, Rice [3, 13]: 0
- Plant response rating, Rice ([3]; Flood, 62 g ai/ha): 0
- Barnyardgrass plant response rating [4, 14]: 80
- Barnyardgrass plant response rating [4, 15]: 90
- Corn plant response rating [5, 14]: 30
- Corn plant response rating [5, 15]: 0
- Morningglory plant response rating [6, 14]: 100
- Morningglory plant response rating [6, 15]: 60
- Wheat plant response rating [7, 14]: 30
- Wheat plant response rating [7, 15]: 0
- Plant response rating, Barnyardgrass [8, 13]: 0
- Plant response rating, Barnyardgrass ([8]; Flood, 62 g ai/ha): 0
- Velvetleaf plant response rating [9, 14]: 90
- Velvetleaf plant response rating [9, 15]: 60
- Crabgrass, Large plant response rating [10, 14]: 90
- Crabgrass, Large plant response rating [10, 15]: 100
- Pigweed plant response rating [11, 14]: 100
- Pigweed plant response rating [11, 15]: 100
- Foxtail, Giant plant response rating [12, 14]: 90
- Foxtail, Giant plant response rating [12, 15]: 100

SMILES: CCc1nn(-c2ccc(C(F)(F)F)cc2)nc1Cn1cnc(C(F)(F)F)c1 [Compound 133]
- Plant response rating, Sedge, Umbrella [1, 13]: 50
- Plant response rating, Sedge, Umbrella ([1]; Flood, 62 g ai/ha): 0
- Plant response rating, Ducksalad [2, 13]: 20
- Plant response rating, Ducksalad ([2]; Flood, 62 g ai/ha): 0
- Plant response rating, Rice [3, 13]: 0
- Plant response rating, Rice ([3]; Flood, 62 g ai/ha): 0
- Barnyardgrass plant response rating [4, 14]: 40
- Plant response rating, Barnyardgrass [4, 15]: 40
- Corn plant response rating [5, 14]: 20
- Plant response rating, Corn [5, 15]: 10
- Morningglory plant response rating [6, 14]: 90
- Plant response rating, Morningglory [6, 15]: 40
- Wheat plant response rating [7, 14]: 30
- Plant response rating, Wheat [7, 15]: 0
- Plant response rating, Barnyardgrass [8, 13]: 15
- Plant response rating, Barnyardgrass ([8]; Flood, 62 g ai/ha): 0
- Velvetleaf plant response rating [9, 14]: 90
- Plant response rating, Velvetleaf [9, 15]: 40
- Crabgrass, Large plant response rating [10, 14]: 80
- Plant response rating, Crabgrass, Large [10, 15]: 90
- Pigweed plant response rating [11, 14]: 100
- Plant response rating, Pigweed [11, 15]: 90
- Foxtail, Giant plant response rating [12, 14]: 70
- Plant response rating, Foxtail, Giant [12, 15]: 90

SMILES: Cc1nn(-c2ccc(C(F)(F)F)cc2)nc1Cn1nc(C(F)(F)F)cc1C [Compound 134]
- Plant response rating, Sedge, Umbrella [1, 13]: 0
- Plant response rating, Sedge, Umbrella ([1]; Flood, 62 g ai/ha): 0
- Plant response rating, Ducksalad [2, 13]: 0
- Plant response rating, Ducksalad ([2]; Flood, 62 g ai/ha): 0
- Plant response rating, Rice [3, 13]: 0
- Plant response rating, Rice ([3]; Flood, 62 g ai/ha): 0
- Barnyardgrass plant response rating [4, 14]: 30
- Plant response rating, Barnyardgrass [4, 15]: 30
- Corn plant response rating [5, 14]: 20
- Plant response rating, Corn [5, 15]: 10
- Morningglory plant response rating [6, 14]: 100
- Plant response rating, Morningglory [6, 15]: 10
- Wheat plant response rating [7, 14]: 0
- Plant response rating, Wheat [7, 15]: 0
- Plant response rating, Barnyardgrass [8, 13]: 15
- Plant response rating, Barnyardgrass ([8]; Flood, 62 g ai/ha): 0
- Velvetleaf plant response rating [9, 14]: 50
- Plant response rating, Velvetleaf [9, 15]: 0
- Crabgrass, Large plant response rating [10, 14]: 90
- Plant response rating, Crabgrass, Large [10, 15]: 100
- Pigweed plant response rating [11, 14]: 100
- Plant response rating, Pigweed [11, 15]: 90
- Foxtail, Giant plant response rating [12, 14]: 50
- Plant response rating, Foxtail, Giant [12, 15]: 100
